Source: paper PMC9125540 (Virology Journal, 2022)
Counter-ions that a name gives are not always drawn. Like-named read-outs stand apart in the source and are kept apart here.

Tests used:
[1] = test system: MDCK cells; experiment: MTT cytotoxicity assay of the compounds (CC50, NCTC, selectivity index); details: MDCK cells, MTT, 48 h
Description: (§1) The cytotoxic effects of the anionic compounds on the viability of MDCK cells was measured by MTT [3-(4, 5-dimethylthiazol-2ol) 2, 5 diphenyl tetrazolium bromide] assay. Briefly, the confluent 96-well plate of MDCK cells were exposed to twofold serial dilutions of the compounds (in triplicates), 100 μl/well, and incubated for 48 h. After the incubation period, the supernatants were removed and 100 μl of 1X MTT solution (100 μl/well) was added to each well. The plates were incubated for 4 h at 37 °C. Then, 100 μl of DMSO (Samchun, Korea) was added to dissolve formazan crystals. Color adsorption in the solution was measured using an enzyme-linked immunosorbent assay (ELISA) reader (StataFax 2100, USA) at 570 nm to calculate the 50% cytotoxic concentration (CC50). The cells without treatment were used as negative control. The percentage of toxicity was calculated using the following formula:
(§2) Toxicity (%) = [100 − (ODT/ODC) × 100], where ODT and ODC refer to the absorbance of the test substance and control, respectively [34]. The 50% cytotoxic concentration (CC50) was defined as the cytotoxic concentration of compounds by regression analysis.
(§3) The non-cytotoxic concentration (NCTC) of the compounds was also determined using the same procedure and used for the antiviral assays. […] The cells with no treatment were considered as negative control.
(§4) The selectivity index (SI) is relative safety of a compound and it was obtained by dividing CC50 by NCTC in the same units.

[2] = test system: TNF-α; experiment: ELISA cytokine protein quantification, TNF-α; format: cell-based, Canine
Description: (§5) MDCK cells were treated as mentioned above. Untreated cells were considered as the negative control. Cell-free supernatant was harvested following 72 h infection period and stored at − 80 °C for the cytokine analysis. In order to investigate the effect of viral infection and anionic compounds on the production of inflammatory cytokines such as IL-6, CCL2 and TNF-α as well as anti-inflammatory cytokine proteins IFN-β1 and IL-27, ELISA method was utilized. Quantitative sandwich Picokine ELISA kits (Boster Biological Technology, CA, USA) were used to detect IL-6, TNF-α and IL-27 cytokine proteins according to the manufacturer's instructions. The CCL2 and IFN-β were evaluated by sandwich Ready-SET-Go kit (Invitrogen, USA) and sandwich geneILNB1 kit (EIAab Science Co, China) according to the manufacturers’ instructions, respectively. The concentrations of the cytokines were calculated according to the corresponding reaction standard formula.
(§6) The cytokine protein levels in supernatants of MDCK cell culture at 72 h after exposure were calculated according to the reaction standard formula.
(§7) To calculate the concentration of the cytokines in cell free supernatants, firstly, the standards optical densities were measured and the standard curves were plotted. The equations of standard curves were used to estimate protein concentration in the samples.

[3] = test system: IAV M gene; format: cell-based, influenza A virus
[4] = test system: CCL2; experiment: ELISA cytokine protein quantification, CCL2; format: cell-based, Canine
Description: as §5, §6, §7

[5] = test system: TNF-α; format: cell-based, Canine; details: combination treatment (co-penetration) with H1N1, 72 h; H1N1 alone 191.00 fold
[6] = test system: IL-6; format: cell-based, Canine; details: combination treatment (co-penetration) with H1N1, 72 h; H1N1 alone 16.622 fold
[7] = test system: IFN- β; experiment: ELISA cytokine protein quantification, IFN-β; format: cell-based, Canine
Description: as §5, §6, §7

[8] = test system: IL-6; experiment: ELISA cytokine protein quantification, IL-6; format: cell-based, Canine
Description: as §5, §6, §7

[9] = test system: IFN-β1; format: cell-based, Canine; details: combination treatment (co-penetration) with H1N1, 72 h; H1N1 alone 0.038 fold
[10] = test system: IL-27; format: cell-based, Canine; details: combination treatment (co-penetration) with H1N1, 72 h; H1N1 alone 0.004 fold
[11] = test system: CCL2; format: cell-based, Canine; details: combination treatment (co-penetration) with H1N1, 72 h; H1N1 alone 22.123 fold
[12] = test system: IL-27; experiment: ELISA cytokine protein quantification, IL-27; format: cell-based, Canine
Description: as §5, §6, §7

[13] = MTT cytotoxicity assay of the compounds (CC50, NCTC, selectivity index); details: dog
Description: as §1, §2, §3, §4

[14] = co-penetration with H1N1, MDCK supernatant, 72 h, H1N1 alone 523.00 ± 2.41
[15] = co-penetration with H1N1, MDCK supernatant, 72 h, H1N1 alone 1243.79 ± 5.58
[16] = co-penetration with H1N1, MDCK supernatant, 72 h, H1N1 alone 26.25 ± 1.77
[17] = co-penetration with H1N1, MDCK supernatant, 72 h, H1N1 alone 941.67 ± 4.71

CC(=O)[O-].[Na+] [Acetate, sodium acetate]
CC50 [1]: 28.95 ± 4.32 mg/mL | NCTC (non-cytotoxic concentration) [1]: 3.00 ± 0.00 mg/mL | NCTC (non-cytotoxic concentration) ([1]; listed as acetate): 3 mg/mL | TNF-α cytokine protein concentration (mean ± SD) [2]: 222.20 ± 0.64 pg/mL | percentage of change of TNF-α protein relative to H1N1 (mean ± SD) ([2]; co-penetration, 72 h): -57.51 ± 0.32 | Ct value, IAV M gene [3]: 20.70 ± 0.30 | CCL2 cytokine protein concentration (mean ± SD) [4]: 338.26 ± 0.00 pg/mL | percentage of change of CCL2 protein relative to H1N1 (mean ± SD) ([4]; co-penetration, 72 h): -72.80 ± 0.12 | TNF-α relative expression [5]: 4.83 fold | IL-6 relative expression [6]: 0.020 fold | IFN- β cytokine protein concentration (mean ± SD) [7]: 68.96 ± 2.06 pg/mL | percentage of change of IFN- β protein relative to H1N1 (mean ± SD) ([7]; co-penetration, 72 h): 163.03 ± 9.86 | IL-6 cytokine protein concentration (mean ± SD) [8]: 110.64 ± 0.08 pg/mL | IFN- β1 relative expression [9]: 0.049 fold | IL-27 relative expression [10]: 0.099 fold | CCL2 relative expression [11]: 0.094 fold | IL-27 cytokine protein concentration (mean ± SD) [12]: 1938.33 ± 0.00 pg/mL | percentage of change of IL-27 protein relative to H1N1 (mean ± SD) ([12]; co-penetration, 72 h): 105.84 ± 1.03

NC12CC3CC(CC(C3)C1)C2 [Amantadine hydrochloride, reference compound]
CC50 at 48 h [13]: 200 ± 1530 µg/mL | NCTC (non-cytotoxic concentration) [1]: 0.10 ± 0.00 mg/mL

O=C1O[C@H]([C@@H](O)CO)C(O)=C1O [Ascorbate, ascorbic acid]
TNF-α cytokine protein concentration (mean ± SD) [2, 14]: 284.25 ± 0.32 pg/mL | Ct value, IAV M gene ([3]; combination treatment with H1N1, supernatants of 48 h treatments, H1N1 alone 12.76 ± 0.24): No Ct value was detected | CCL2 cytokine protein concentration (mean ± SD) [4, 15]: 309.05 ± 1.86 pg/mL | CCL2 cytokine protein concentration (mean ± SD) ([4]; co-penetration with H1N1, MDCK supernatant, 72 h, H1N1 alone 1243.79 ± 5.58, listed as Asc): 309.05 ± 1.86 pg/mL | IFN- β cytokine protein concentration (mean ± SD) [7, 16]: 73.75 ± 1.77 pg/mL | IFN- β cytokine protein concentration (mean ± SD) ([7]; co-penetration with H1N1, MDCK supernatant, 72 h, H1N1 alone 26.25 ± 1.77, listed as Asc): 73.75 ± 1.77 pg/mL | IL-6 cytokine protein concentration (mean ± SD) ([8]; co-penetration with H1N1, MDCK supernatant, 72 h, H1N1 alone 171.78 ± 0.17): 38.05 ± 0.17 pg/mL | IL-27 cytokine protein concentration (mean ± SD) [12, 17]: 1833.33 ± 2.36 pg/mL

O=C(O)CC(O)(CC(=O)O)C(=O)O [Citrate, sodium citrate]
NCTC (non-cytotoxic concentration) [1]: 3.00 ± 0.00 mg/mL | NCTC (non-cytotoxic concentration) ([1]; listed as citrate): 3 mg/mL | TNF-α cytokine protein concentration (mean ± SD) [2, 14]: 253.45 ± 0.48 pg/mL | Ct value, IAV M gene [3]: 22.45 ± 0.75 | CCL2 cytokine protein concentration (mean ± SD) [4, 15]: 446.95 ± 0.37 pg/mL | IFN- β cytokine protein concentration (mean ± SD) [7, 16]: 70.62 ± 2.06 pg/mL | IL-6 cytokine protein concentration (mean ± SD) ([8]; co-penetration with H1N1, MDCK supernatant, 72 h, H1N1 alone 171.78 ± 0.17, listed as Cit): 126.60 ± 0.17 pg/mL | IL-27 cytokine protein concentration (mean ± SD) [12, 17]: 2055.00 ± 0.00 pg/mL | IL-27 cytokine protein concentration (mean ± SD) ([12]; co-penetration with H1N1, MDCK supernatant, 72 h, H1N1 alone 941.67 ± 4.71, listed as Cit): 2055.00 ± 0.00 pg/mL
